This is an account of results in US20050234125A1, “Alpha-sulfonylamino-acetonitriles” (priority 2002, published 2005).

`CC(C#N)(COc1ccc(Cl)cc1)S(=O)(=O)Cc1ccc(Cl)cc1` (centres unmarked): the melting point (commonly the temperature of the solid-liquid transition) lay within 119 to 120 °C.

Molecule `CC(C#N)(COc1ccc(Cl)cc1)NS(=O)(=O)Cc1ccccc1` (centres unmarked) returned a melting point of 120 to 121 °C.
